According to patent US12378203B2, “Imidazole compounds, process for the synthesis and uses thereof” (AHAMMUNE BIOSCIENCES PRIVATE LIMITED, priority 2018, dated 2025):

How the values were obtained:
Assay type in all cases: cell-based
mouse B16F10 cells = assay: Protection of melanocytes from tunicamycin (ER stress) induced cell death, MTT assay, B16F10; conditions: for % Recovery: compound at 25-30 μM, 6 h pretreatment, tunicamycin 300 ng/ml, total 72 h, cell growth over tunicamycin treatment; for EC50: Mus musculus, B16-F10, different concentrations of compound along with tunicamycin, GraphPad Prism 7
Experimental: (§1) Compounds synthesized under present invention were tested for their in vitro potency. The potency was tested as their ability to protect melanocytes from ER stress induced cell death. ER stress was caused by the treatment of tunicamycin. The results obtained are summarized in Table-I, Table-II and Table-III for mouse B16F10 cells, human A375 cells and human primary melanocytes respectively. Table-IV and Table-V describes the potency of the compounds in effective concentration 50 (EC50) which means the dose of compound needed to get the 50% of maximum effect.
(§2) For the estimation of potency, mouse B16F10, human A375 or human primary melanocytes (NHEM) cells were pretreated in quadruplicates with these compounds for 6 hours. After 6 hours of incubation, tunicamycin was added at either 300 ng/ml for B16F10 cells or at 100 ng/ml for A375 cells or at 200 ng/ml for NHEM to induce stress mediated cell death and cultured further for a total of 72 hours. The vehicle (DMSO) concentration was kept constant for each well. After 72 hours of treatment, MTT assay was performed to measure the cell growth and vehicle control was kept at 100%. Effect of the treatment of compounds was calculated as cell growth over tunicamycin treatment. For the estimation of Effective Concentration 50 (EC50), cells were treated with different concentration of compounds along with tunicamycin and MTT assay was performed. The EC50 values were calculated by GraphPad Prism 7 software.

human A375 cells = assay: Protection of melanocytes from tunicamycin (ER stress) induced cell death, MTT assay, A375; conditions: for % Recovery: compound at 25-30 μM, 6 h pretreatment, tunicamycin 100 ng/ml, total 72 h, cell growth over tunicamycin treatment; for EC50: Homo sapiens, A-375, different concentrations of compound along with tunicamycin, GraphPad Prism 7
Experimental: as §1, §2

[1] = tested on: human primary melanocytes (NHEM: Normal Human Epidermal Melanocytes); assay: Protection of melanocytes from tunicamycin (ER stress) induced cell death, MTT assay, NHEM; conditions: compound at 25-30 μM, 6 h pretreatment, tunicamycin 200 ng/ml, total 72 h, cell growth over tunicamycin treatment
Experimental: as §1, §2

SMILES	% Recovery (mouse B16F10 cells) [%]	% Recovery (human A375 cells) [%]	EC50 (human A375 cells) [µM]	EC50 (mouse B16F10 cells) [µM]	% Recovery [1] [%]
CN1CCN(C(=O)Cc2c[nH]c(-c3ccc(Cl)cc3)n2)CC1 [Compound 020, 2-(2-(4-chlorophenyl)-1H-imidazol-4-yl)-1-(4-methylpiperazin-1-yl)ethan-1-one]	17				
O=C(Cc1c[nH]c(-c2ccc(Cl)cc2)n1)NCCc1ccc(F)cc1 [Compound 001, 2-(2-(4-chlorophenyl)-1H-imidazol-4-yl)-N-(4-fluorophenethyl)acetamide]	52	25			
O=C(NCCc1c[nH]c(-c2cc(Cl)cc(Cl)c2)n1)c1cc(F)cc(F)c1 [Compound 069, N-(2-(2-(3,5-dichlorophenyl)-1H-imidazol-4-yl)ethyl)-3,5-difluorobenzamide]		88	1.2		
O=C(Cc1c[nH]c(-c2ccc(Cl)cc2)n1)NCCN1CCOCC1 [Compound 003, 2-(2-(4-chlorophenyl)-1H-imidazol-4-yl)-N-(2-morpholinoethyl)acetamide]	17	13			
CC(C)OCCCNC(=O)Cc1c[nH]c(-c2ccc(Cl)cc2)n1 [Compound 010, 2-(2-(4-chlorophenyl)-1H-imidazol-4-yl)-N-(3-isopropoxypropyl)acetamide]	12	17			
CCCCNC(=O)Cc1c[nH]c(-c2ccc(Cl)cc2)n1 [Compound 004, N-butyl-2-(2-(4-chlorophenyl)-1H-imidazol-4-yl)acetamide]	22	32			
O=C(Cc1c[nH]c(-c2ccc(Cl)cc2)n1)Nc1cccc(C(F)(F)F)c1 [Compound 009, 2-(2-(4-chlorophenyl)-1H-imidazol-4-yl)-N-(3-(trifluoromethyl)phenyl)acetamide]	36				
O=C(NCCc1c[nH]c(-c2ccc(Cl)cc2Cl)n1)c1ccc(F)cc1 [Compound 070, N-(2-(2-(2,4-dichlorophenyl)-1H-imidazol-4-yl)ethyl)-4-fluorobenzamide]	51	44	8.1	11.9	
CC(C)OCCCNC(=O)Cc1cn(C)c(-c2ccc(Cl)cc2)n1 [Compound 008, 2-(2-(4-chlorophenyl)-1-methyl-1H-imidazol-4-yl)-N-(3-isopropoxypropyl)acetamide]	39				
O=C(NCCc1c[nH]c(-c2ccc(Cl)cc2)n1)C1=CCCC1 [Compound 055, N-(2-(2-(4-chlorophenyl)-1H-imidazol-4-yl)ethyl)cyclopent-1-ene-1-carboxamide]	10	59	8.9		13
O=C(NCCc1c[nH]c(-c2ccc(Cl)cc2)n1)c1ccc(F)cc1 [Compound 051, N-(2-(2-(4-chlorophenyl)-1H-imidazol-4-yl)ethyl)-4-fluorobenzamide]	22	50	5.9		35
O=C(Cc1c[nH]c(-c2ccc(Cl)cc2)n1)N1CCCC1 [Compound 016, 2-(2-(4-chlorophenyl)-1H-imidazol-4-yl)-1-(pyrrolidin-1-yl)ethan-1-one]	14	17			
O=C(NCCc1c[nH]c(-c2ccc(Cl)cc2Cl)n1)c1ccc(C(F)(F)F)cc1 [Compound 066, N-(2-(2-(2,4-dichlorophenyl)-1H-imidazol-4-yl)ethyl)-4-(trifluoromethyl)benzamide]	50	44	12.1	7.2	
CCCCNC(=O)Cc1cn(C)c(-c2ccc(Cl)cc2)n1 [Compound 005, N-butyl-2-(2-(4-chlorophenyl)-1-methyl-1H-imidazol-4-yl)acetamide]	38				
CC(C)(C)CC(=O)NCCc1c[nH]c(-c2ccc(Cl)cc2)n1 [Compound 025, N-(2-(2-(4-chlorophenyl)-1H-imidazol-4-yl)ethyl)-3,3-dimethylbutanamide]	55	57	14.2	3.3	41
O=C(Cc1c[nH]c(-c2ccc(Cl)cc2)n1)N1CCC(F)(F)CC1 [Compound 012, 2-(2-(4-chlorophenyl)-1H-imidazol-4-yl)-1-(4,4-difluoropiperidin-1-yl)ethan-1-one]	15				

SMILES	% Recovery (mouse B16F10 cells) [%]	% Recovery (human A375 cells) [%]	EC50 (human A375 cells) [µM]	EC50 (mouse B16F10 cells) [µM]	% Recovery [1] [%]
CCC(C)(C)C(=O)NCCc1c[nH]c(-c2ccc(Cl)cc2)n1 [Compound 026, N-(2-(2-(4-chlorophenyl)-1H-imidazol-4-yl)ethyl)-2,2-dimethylbutanamide]	15	50	18.6	8.6	30
O=C(NCCc1c[nH]c(-c2ccc(Cl)cc2)n1)c1ccc(C(F)(F)F)cc1 [Compound 053, N-(2-(2-(4-chlorophenyl)-1H-imidazol-4-yl)ethyl)-4-(trifluoromethyl)benzamide]	24	65	2.9	18.1	37
Cn1cc(CC(=O)Nc2cccc(C(F)(F)F)c2)nc1-c1ccc(Cl)cc1 [Compound 007, 2-(2-(4-chlorophenyl)-1-methyl-1H-imidazol-4-yl)-N-(3-(trifluoromethyl)phenyl)acetamide]	38	19			
CCCCCCCC(=O)NCCc1c[nH]c(-c2ccc(Cl)cc2)n1 [Compound 068, N-(2-(2-(4-chlorophenyl)-1H-imidazol-4-yl)ethyl)octanamide]	21	42	9	33.8	
O=C(NCCc1c[nH]c(-c2ccc(Cl)cc2)n1)C12CC3CC(CC(C3)C1)C2 [Compound 064, (3r,5r,7r)-N-(2-(2-(4-chlorophenyl)-1H-imidazol-4-yl)ethyl)adamantane-1-carboxamide]		65	4.9		38
Cn1cc(CC(=O)Nc2ccc(F)cc2)nc1-c1ccc(Cl)cc1 [Compound 013, 2-(2-(4-chlorophenyl)-1-methyl-1H-imidazol-4-yl)-N-(4-fluorophenyl)acetamide]	40				
Cn1cc(CC(=O)N2CCCC2)nc1-c1ccc(Cl)cc1 [Compound 017, 2-(2-(4-chlorophenyl)-1-methyl-1H-imidazol-4-yl)-1-(pyrrolidin-1-yl)ethan-1-one]	29				
Cn1cc(CC(=O)NCCc2ccc(F)cc2)nc1-c1ccc(Cl)cc1 [Compound 022, 2-(2-(4-chlorophenyl)-1-methyl-1H-imidazol-4-yl)-N-(4-fluorophenethyl)acetamide]	44	18		13.7	
O=C(NCCc1c[nH]c(-c2ccc(Cl)cc2Cl)n1)c1cc(F)cc(F)c1 [Compound 071, N-(2-(2-(2,4-dichlorophenyl)-1H-imidazol-4-yl)ethyl)-3,5-difluorobenzamide]	58	39	10.5	10.9	
O=C(Cc1c[nH]c(-c2ccc(Cl)cc2)n1)NC1CCCC1 [Compound 019, 2-(2-(4-chlorophenyl)-1H-imidazol-4-yl)-N-cyclopentylacetamide]	36				
CN1CCN(C(=O)Cc2cn(C)c(-c3ccc(Cl)cc3)n2)CC1 [Compound 021, 2-(2-(4-chlorophenyl)-1-methyl-1H-imidazol-4-yl)-1-(4-methylpiperazin-1-yl)ethan-1-one]				55.7	
Cn1cc(CC(=O)NCCN2CCOCC2)nc1-c1ccc(Cl)cc1 [Compound 006, 2-(2-(4-chlorophenyl)-1-methyl-1H-imidazol-4-yl)-N-(2-morpholinoethyl)acetamide]	31				
O=C(Cc1c[nH]c(-c2ccc(Cl)cc2)n1)Nc1ccc(C(F)(F)F)cc1 [Compound 014, 2-(2-(4-chlorophenyl)-1H-imidazol-4-yl)-N-(4-(trifluoromethyl)phenyl)acetamide]	52	36	33.3		
O=C(Cc1c[nH]c(-c2ccc(Cl)cc2)n1)Nc1ccc(F)cc1 [Compound 011, 2-(2-(4-chlorophenyl)-1H-imidazol-4-yl)-N-(4-fluorophenyl)acetamide]	18				
CC(C)CC(=O)NCCc1c[nH]c(-c2ccc(Cl)cc2)n1 [Compound 027, N-(2-(2-(4-chlorophenyl)-1H-imidazol-4-yl)ethyl)-3-methylbutanamide]		56	14.9		33
CCCCCC(=O)NCCc1c[nH]c(-c2ccc(Cl)cc2)n1 [Compound 067, N-(2-(2-(4-chlorophenyl)-1H-imidazol-4-yl)ethyl)hexanamide]	40	54	3.1	9.7	
